Reference: US9856242B2, “5-fluoro-N-(pyridin-2-yl)pyridin-2-amine derivatives containing a sulfone group” (Bayer Pharma Aktiengesellschaft, priority 2014, dated 2018)
pIC50: −log10 of the molar value.

Experiments:
[1] = target: T1, CDK2/CycE (Homo sapiens, UniProt P24941); experiment: CDK2/CycE high ATP kinase assay (Method 2b, TR-FRET, 2 mM ATP); format: biochemical
T1 construct: GST; purchased ProQinase GmbH (Freiburg, Germany); host or cells: insect cells (Sf9)
Procedure: 2b. CDK2/CycE High ATP Kinase Assay
CDK2/CycE-inhibitory activity of compounds of the present invention at 2 mM adenosine-tri-phosphate (ATP) was quantified employing the CDK2/CycE TR-FRET (TR-FRET=Time Resolved Fluorescence Energy Transfer) assay as described in the following paragraphs.
Recombinant fusion proteins of GST and human CDK2 and of GST and human CycE, expressed in insect cells (Sf9) and purified by Glutathion-Sepharose affinity chromatography, were purchase from ProQinase GmbH (Freiburg, Germany). As substrate for the kinase reaction biotinylated peptide biotin-Ttds-YISPLKSPYKISEG (C-terminus in amid form) was used which can be purchased e.g. form the company JERINI peptide technologies (Berlin, Germany). […]
The resulting mixture was incubated 1 h at 22° C. to allow the formation of complex between the phosphorylated biotinylated peptide and the detection reagents. Subsequently the amount of phosphorylated substrate was evaluated by measurement of the resonance energy transfer from the Eu-chelate to the streptavidine-XL. Therefore, the fluorescence emissions at 620 nm and 665 nm after excitation at 350 nm wer measured in a TR-FRET reader, e.g. a Rubystar (BMG Labtechnologies, Offenburg, Germany) or a Viewlux (Perkin-Elmer). […]

[2] = tested on: A2780 cells; experiment: Proliferation assay (Method 3), A2780; format: cell-based; conditions: A2780, 96 h; human ovarian carcinoma, 4 days, crystal violet; read-out: Inhibition of A2780 cell proliferation IC50
Procedure: Cultivated tumour cells (HeLa, human cervical tumour cells, ATCC CCL-2; NCI-H460, human non-small cell lung carcinoma cells, ATCC HTB-177; A2780, human ovarian carcinoma cells, ECACC #93112519; DU 145, hormone-independent human prostate carcinoma cells, ATCC HTB-81; HeLa-MaTu-ADR, multidrug-resistant human cervical carcinoma cells, EPO-GmbH Berlin; Caco-2, human colorectal carcinoma cells, ATCC HTB-37; B16F10, mouse melanoma cells, ATCC CRL-6475) were plated at a density of 5,000 cells/well (DU145, HeLa-MaTu-ADR), 3,000 cells/well (NCI-H460, HeLa), 2,500 cells/well (A2780), 1,500 cells/well (Caco-2), or 1,000 cells/well (B16F10) in a 96-well multititer plate in 200 μL of their respective growth medium supplemented 10% fetal calf serum. […] Cell proliferation was determined by staining the cells with crystal violet: the cells were fixed by adding 20 μl/measuring point of an 11% glutaric aldehyde solution for 15 minutes at room temperature. […] The extinction was determined by photometry at a wavelength of 595 nm. The change of cell number, in percent, was calculated by normalization of the measured values to the extinction values of the zero-point plate (=0%) and the extinction of the untreated (0 μm) cells (=100%). […]

| pIC50 [1] | pIC50 [2] | Compound |
| --- | --- | --- |
| 6.27 | – | CS(=O)(=O)Cc1ccnc(Nc2cc(-c3ccc(F)c4ccoc34)c(F)cn2)c1 [Example 1, 5-Fluoro-4-(4-fluoro-1-benzofuran-7-yl)-N-{4-[(methylsulfonyl)methyl]pyridin-2-yl}pyridin-2-amine] |
| 6.29 | 7.62 | CS(=O)(=O)Cc1cc(F)nc(Nc2cc(-c3ccc(F)c4ccoc34)c(F)cn2)c1 [Example 2, 5-Fluoro-4-(4-fluoro-1-benzofuran-7-yl)-N-{6-fluoro-4-[(methylsulfonyl)methyl]pyridin-2-yl}pyridin-2-amine] |
